Activity calls are given as the source filed them. Cut-off read from the data, not from the text of the source, for most assays here: actives have a measured Kd and inactives only a lower limit.
How the values were obtained:
[1] = target: Dual specificity tyrosine-phosphorylation-regulated kinase 1A (Homo sapiens, UniProt Q13627)
[2] = target: STE20-like serine/threonine-protein kinase (Homo sapiens, UniProt Q9H2G2)
[3] = target: Rho-associated protein kinase 2 (Homo sapiens, UniProt O75116)
[4] = target: T1, Phosphatidylinositol 5-phosphate 4-kinase type-2 alpha (Homo sapiens, UniProt P48426)
T1 sequence (P48426 whole entry): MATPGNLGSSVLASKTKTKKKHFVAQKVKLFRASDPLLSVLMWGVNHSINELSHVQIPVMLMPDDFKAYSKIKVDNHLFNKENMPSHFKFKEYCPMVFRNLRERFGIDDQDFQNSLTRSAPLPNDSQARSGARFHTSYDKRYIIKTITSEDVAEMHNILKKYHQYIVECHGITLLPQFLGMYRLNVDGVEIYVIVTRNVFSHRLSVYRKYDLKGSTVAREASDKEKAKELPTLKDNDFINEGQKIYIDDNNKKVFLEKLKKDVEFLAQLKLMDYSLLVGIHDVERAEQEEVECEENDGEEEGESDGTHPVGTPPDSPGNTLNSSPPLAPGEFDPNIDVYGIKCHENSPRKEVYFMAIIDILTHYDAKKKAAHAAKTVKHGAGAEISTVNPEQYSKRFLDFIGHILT

[5] = target: BMP-2-inducible protein kinase (Homo sapiens, UniProt Q9NSY1)
BMP-2-inducible protein kinase, sequence (Q9NSY1 whole entry): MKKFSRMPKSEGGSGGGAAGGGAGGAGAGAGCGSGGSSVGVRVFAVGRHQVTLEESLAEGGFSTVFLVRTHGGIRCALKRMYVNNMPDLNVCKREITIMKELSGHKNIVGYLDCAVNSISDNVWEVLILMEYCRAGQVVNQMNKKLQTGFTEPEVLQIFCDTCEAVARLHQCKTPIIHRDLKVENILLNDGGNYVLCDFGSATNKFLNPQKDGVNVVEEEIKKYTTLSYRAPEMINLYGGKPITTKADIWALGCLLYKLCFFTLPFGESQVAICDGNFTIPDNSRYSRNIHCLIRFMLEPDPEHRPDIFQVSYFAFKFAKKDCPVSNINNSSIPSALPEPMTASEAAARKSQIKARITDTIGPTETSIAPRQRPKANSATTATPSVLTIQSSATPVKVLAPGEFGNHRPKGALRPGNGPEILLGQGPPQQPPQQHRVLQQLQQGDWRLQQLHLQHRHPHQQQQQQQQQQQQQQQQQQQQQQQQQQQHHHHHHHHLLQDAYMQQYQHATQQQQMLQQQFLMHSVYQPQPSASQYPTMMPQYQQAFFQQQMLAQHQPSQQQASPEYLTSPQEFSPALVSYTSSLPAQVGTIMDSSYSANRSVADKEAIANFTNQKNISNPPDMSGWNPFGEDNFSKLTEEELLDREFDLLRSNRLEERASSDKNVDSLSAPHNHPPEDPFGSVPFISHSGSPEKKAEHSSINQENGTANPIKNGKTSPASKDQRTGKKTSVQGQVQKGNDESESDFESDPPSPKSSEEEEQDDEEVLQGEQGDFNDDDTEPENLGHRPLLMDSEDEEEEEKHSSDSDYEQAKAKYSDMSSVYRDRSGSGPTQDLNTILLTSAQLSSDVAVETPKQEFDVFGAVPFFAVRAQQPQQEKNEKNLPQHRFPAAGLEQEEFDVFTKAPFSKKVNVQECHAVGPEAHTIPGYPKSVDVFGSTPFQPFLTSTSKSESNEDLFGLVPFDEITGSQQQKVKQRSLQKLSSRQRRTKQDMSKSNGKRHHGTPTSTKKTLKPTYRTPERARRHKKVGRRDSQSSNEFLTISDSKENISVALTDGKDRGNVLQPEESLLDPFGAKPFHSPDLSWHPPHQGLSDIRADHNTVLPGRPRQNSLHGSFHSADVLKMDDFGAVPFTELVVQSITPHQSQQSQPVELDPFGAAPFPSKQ

[6] = target: T2, Thyroid hormone receptor-associated protein 3 (Homo sapiens, UniProt Q9Y2W1)
T2 sequence (Q9Y2W1 whole entry): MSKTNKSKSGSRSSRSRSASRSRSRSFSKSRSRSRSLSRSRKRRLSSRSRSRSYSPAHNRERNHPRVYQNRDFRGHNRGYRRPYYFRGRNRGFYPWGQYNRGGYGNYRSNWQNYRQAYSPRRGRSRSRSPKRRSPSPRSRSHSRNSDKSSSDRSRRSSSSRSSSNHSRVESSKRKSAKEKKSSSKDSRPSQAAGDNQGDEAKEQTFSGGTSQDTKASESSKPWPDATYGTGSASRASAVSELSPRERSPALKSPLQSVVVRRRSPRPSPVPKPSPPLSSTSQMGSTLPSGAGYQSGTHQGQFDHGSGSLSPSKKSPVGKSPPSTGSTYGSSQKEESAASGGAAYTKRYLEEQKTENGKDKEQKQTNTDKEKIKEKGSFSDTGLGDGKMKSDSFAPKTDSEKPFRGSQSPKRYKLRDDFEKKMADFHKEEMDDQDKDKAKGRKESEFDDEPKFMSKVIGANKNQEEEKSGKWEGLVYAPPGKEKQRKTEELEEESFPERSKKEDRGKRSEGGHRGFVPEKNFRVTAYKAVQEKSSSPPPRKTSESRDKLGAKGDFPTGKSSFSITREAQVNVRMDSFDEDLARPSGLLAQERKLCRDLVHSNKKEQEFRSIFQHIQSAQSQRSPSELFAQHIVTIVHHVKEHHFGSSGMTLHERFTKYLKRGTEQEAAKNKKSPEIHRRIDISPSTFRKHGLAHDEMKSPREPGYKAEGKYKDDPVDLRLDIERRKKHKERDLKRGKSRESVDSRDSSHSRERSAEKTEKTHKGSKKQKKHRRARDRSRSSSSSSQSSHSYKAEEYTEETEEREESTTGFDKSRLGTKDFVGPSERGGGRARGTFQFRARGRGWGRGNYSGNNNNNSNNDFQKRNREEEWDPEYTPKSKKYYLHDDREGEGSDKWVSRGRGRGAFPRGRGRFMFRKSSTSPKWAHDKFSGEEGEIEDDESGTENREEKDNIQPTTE

[7] = target: Ribosomal protein S6 kinase alpha-1 (Homo sapiens, UniProt Q15418)
[8] = target: Mitogen-activated protein kinase kinase kinase 1 (Homo sapiens, UniProt Q13233)
Mitogen-activated protein kinase kinase kinase 1, sequence (Q13233 whole entry): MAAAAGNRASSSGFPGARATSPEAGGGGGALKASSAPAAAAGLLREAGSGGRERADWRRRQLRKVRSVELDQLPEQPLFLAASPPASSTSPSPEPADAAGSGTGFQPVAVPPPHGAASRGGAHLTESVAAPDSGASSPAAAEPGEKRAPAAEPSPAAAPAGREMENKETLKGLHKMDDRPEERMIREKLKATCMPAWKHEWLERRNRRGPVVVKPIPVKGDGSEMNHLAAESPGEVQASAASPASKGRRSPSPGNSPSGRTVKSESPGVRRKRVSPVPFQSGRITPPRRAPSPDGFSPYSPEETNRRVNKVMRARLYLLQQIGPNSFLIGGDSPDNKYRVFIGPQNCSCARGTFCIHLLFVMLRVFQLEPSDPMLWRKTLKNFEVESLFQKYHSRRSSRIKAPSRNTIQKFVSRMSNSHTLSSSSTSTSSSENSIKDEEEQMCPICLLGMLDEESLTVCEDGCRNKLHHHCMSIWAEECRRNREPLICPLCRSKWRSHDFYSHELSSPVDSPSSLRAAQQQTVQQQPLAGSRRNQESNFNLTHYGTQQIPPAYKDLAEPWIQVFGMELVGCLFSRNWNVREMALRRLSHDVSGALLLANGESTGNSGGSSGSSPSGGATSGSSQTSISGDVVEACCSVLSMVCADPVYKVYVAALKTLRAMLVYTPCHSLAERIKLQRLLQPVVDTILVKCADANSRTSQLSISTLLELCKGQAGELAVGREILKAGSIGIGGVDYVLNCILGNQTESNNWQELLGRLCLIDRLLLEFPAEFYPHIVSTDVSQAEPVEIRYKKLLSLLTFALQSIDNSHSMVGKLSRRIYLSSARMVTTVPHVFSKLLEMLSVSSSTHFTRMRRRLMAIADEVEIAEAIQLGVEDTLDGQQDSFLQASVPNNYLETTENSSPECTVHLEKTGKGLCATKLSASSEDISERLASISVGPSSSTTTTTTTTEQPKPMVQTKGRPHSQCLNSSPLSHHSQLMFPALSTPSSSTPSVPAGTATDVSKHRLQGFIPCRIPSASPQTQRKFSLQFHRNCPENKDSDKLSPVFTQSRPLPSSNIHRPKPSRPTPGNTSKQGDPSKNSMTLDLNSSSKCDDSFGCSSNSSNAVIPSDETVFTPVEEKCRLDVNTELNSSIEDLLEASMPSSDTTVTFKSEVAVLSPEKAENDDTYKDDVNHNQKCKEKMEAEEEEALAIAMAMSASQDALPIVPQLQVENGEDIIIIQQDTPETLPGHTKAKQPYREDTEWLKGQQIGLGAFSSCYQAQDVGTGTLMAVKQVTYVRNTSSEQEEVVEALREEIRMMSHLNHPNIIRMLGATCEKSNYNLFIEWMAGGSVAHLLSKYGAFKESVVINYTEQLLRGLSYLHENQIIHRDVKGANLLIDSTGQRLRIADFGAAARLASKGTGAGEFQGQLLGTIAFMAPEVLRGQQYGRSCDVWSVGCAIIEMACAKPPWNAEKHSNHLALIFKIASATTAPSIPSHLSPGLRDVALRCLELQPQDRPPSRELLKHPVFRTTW

[9] = target: Phosphatidylethanolamine-binding protein 1 (Homo sapiens, UniProt P30086)
Phosphatidylethanolamine-binding protein 1, sequence (P30086 whole entry): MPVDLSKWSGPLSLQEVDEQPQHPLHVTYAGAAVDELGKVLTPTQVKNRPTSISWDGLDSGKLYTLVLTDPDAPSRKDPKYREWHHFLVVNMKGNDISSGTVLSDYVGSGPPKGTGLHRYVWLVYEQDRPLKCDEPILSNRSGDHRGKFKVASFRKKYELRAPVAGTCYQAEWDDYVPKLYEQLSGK

[10] = target: T3, Exosome RNA helicase MTR4 (Homo sapiens, UniProt P42285)
T3 sequence (P42285 whole entry): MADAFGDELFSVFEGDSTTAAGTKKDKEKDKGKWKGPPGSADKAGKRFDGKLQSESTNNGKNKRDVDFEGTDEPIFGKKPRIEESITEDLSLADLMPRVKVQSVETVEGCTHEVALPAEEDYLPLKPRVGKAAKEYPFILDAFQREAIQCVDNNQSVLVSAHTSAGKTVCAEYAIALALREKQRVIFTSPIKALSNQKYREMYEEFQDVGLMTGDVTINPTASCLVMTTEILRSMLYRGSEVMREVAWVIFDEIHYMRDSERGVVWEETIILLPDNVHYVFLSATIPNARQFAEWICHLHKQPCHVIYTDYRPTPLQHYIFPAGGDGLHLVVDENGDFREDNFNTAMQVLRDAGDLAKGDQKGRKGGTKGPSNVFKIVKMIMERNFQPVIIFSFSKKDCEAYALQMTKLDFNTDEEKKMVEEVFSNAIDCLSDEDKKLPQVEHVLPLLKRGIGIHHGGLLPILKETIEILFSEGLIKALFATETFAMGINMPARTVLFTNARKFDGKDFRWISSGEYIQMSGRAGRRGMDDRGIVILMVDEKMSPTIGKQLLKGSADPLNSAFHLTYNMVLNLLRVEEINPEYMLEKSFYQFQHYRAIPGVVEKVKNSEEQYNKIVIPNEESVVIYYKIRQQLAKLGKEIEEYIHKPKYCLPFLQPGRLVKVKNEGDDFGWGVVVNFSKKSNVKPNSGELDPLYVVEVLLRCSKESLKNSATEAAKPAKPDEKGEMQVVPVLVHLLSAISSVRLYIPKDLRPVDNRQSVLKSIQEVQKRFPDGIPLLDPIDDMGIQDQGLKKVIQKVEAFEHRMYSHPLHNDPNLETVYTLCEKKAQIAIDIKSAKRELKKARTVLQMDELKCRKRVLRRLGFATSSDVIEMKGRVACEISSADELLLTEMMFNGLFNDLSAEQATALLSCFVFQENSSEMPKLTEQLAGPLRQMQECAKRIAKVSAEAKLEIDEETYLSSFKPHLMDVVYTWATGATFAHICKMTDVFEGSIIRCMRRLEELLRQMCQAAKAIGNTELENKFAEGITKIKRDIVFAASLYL

[11] = target: Cyclin-dependent kinase 17 (Homo sapiens, UniProt Q00537)
Cyclin-dependent kinase 17, sequence (Q00537 whole entry, canonical isoform): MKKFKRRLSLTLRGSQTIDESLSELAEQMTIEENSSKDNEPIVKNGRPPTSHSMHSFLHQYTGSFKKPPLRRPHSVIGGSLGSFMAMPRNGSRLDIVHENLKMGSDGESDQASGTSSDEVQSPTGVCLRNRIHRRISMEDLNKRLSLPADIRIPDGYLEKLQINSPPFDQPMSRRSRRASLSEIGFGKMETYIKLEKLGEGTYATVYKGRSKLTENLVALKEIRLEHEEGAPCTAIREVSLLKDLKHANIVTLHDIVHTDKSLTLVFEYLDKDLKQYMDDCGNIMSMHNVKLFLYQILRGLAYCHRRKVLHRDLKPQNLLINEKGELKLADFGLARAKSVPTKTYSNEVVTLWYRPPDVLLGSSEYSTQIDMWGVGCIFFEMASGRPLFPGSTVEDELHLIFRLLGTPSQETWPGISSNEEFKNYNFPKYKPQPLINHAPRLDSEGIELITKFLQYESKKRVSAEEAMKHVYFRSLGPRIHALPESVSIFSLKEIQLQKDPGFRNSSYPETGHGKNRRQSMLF

[12] = target: S-adenosylmethionine synthase isoform type-2 (Homo sapiens, UniProt P31153)
[13] = target: Serine/threonine-protein kinase pim-1 (Homo sapiens, UniProt P11309)
Serine/threonine-protein kinase pim-1, sequence (P11309 whole entry): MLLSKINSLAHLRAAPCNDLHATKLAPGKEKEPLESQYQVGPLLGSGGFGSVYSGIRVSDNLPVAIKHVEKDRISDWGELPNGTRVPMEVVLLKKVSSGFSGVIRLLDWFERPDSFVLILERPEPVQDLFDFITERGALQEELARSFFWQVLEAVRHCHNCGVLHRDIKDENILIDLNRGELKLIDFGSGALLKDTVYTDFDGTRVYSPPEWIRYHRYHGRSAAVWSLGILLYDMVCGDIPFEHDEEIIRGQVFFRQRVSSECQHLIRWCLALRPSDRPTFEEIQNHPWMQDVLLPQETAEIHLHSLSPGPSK
Note: in the data inactive means no Kd found up to 30 µM.

Rho-associated protein kinase 2, sequence (O75116 whole entry): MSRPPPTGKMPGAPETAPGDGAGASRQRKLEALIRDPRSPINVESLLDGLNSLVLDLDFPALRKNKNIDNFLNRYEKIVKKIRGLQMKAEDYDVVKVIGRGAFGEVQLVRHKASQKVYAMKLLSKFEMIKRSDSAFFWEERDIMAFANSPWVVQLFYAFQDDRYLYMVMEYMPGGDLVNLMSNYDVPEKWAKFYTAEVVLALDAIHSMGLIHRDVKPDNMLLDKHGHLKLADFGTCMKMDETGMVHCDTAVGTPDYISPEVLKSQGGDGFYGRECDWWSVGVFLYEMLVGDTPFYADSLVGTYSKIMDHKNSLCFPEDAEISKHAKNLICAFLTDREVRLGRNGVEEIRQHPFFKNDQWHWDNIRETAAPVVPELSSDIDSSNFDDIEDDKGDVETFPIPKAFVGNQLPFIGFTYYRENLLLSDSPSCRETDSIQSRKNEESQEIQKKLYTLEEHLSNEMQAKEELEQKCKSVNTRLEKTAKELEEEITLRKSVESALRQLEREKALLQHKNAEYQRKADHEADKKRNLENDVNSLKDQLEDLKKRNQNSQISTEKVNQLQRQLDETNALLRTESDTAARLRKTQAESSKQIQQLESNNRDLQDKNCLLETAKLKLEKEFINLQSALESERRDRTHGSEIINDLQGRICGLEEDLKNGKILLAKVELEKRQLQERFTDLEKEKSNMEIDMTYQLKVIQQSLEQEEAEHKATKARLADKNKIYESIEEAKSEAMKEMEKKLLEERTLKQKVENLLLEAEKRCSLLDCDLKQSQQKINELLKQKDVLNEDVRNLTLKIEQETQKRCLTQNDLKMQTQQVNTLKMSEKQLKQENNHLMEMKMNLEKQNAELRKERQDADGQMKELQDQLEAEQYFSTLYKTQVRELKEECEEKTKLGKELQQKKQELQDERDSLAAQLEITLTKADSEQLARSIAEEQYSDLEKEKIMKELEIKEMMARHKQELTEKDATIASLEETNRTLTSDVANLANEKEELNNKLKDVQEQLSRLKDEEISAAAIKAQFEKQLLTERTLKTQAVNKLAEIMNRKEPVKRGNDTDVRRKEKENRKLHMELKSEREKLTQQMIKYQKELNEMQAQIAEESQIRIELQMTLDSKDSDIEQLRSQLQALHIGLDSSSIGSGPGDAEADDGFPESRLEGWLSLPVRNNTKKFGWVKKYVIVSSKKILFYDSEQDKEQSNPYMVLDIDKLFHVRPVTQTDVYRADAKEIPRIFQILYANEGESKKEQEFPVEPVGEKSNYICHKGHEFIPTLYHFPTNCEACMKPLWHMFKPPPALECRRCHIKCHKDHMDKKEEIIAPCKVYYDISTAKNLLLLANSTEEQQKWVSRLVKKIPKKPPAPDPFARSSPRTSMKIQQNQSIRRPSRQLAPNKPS

Row | Compound | Kd [1] | Kd [2] | Kd [3] | Kd [4] | Kd [5] | Kd [6] | Kd [7] | Kd [8] | Kd [9] | Kd [10] | Kd [11] | Kd [12] | Kd [13]
1 | O=C(Nc1cc(C(F)(F)F)cc(C(F)(F)F)c1)c1cc(Cl)ccc1O [IMD-0354] | > 30 µM (inactive) | > 30 µM (inactive) | > 30 µM (inactive) | > 30 µM (inactive) | > 30 µM (inactive) | > 30 µM (inactive) | > 30 µM (inactive) | > 30 µM (inactive) | > 30 µM (inactive) | > 30 µM (inactive) | > 30 µM (inactive) | > 30 µM (inactive) | 
2 | FC(F)(F)c1ccc(/C=C/c2nc(COc3ccc(CCCCn4ccnn4)cc3)co2)cc1 [MUBRITINIB] | > 30 µM (inactive) | > 30 µM (inactive) | > 30 µM (inactive) |  | > 30 µM (inactive) | > 30 µM (inactive) | > 30 µM (inactive) | > 30 µM (inactive) | > 30 µM (inactive) | > 30 µM (inactive) | > 30 µM (inactive) |  | > 30 µM (inactive)
3 | NC(=O)c1c(OCc2c(F)cc(Br)cc2F)nsc1NC(=O)NCCCCN1CCCC1 [OSI-632] |  |  |  | > 30 µM (inactive) | > 30 µM (inactive) | > 30 µM (inactive) |  | 0.135 µM (active) | > 30 µM (inactive) | > 30 µM (inactive) |  | > 30 µM (inactive) | 
4 | CCCCCCCCCCCCCCCCCCOP(=O)([O-])OC1CC[N+](C)(C)CC1 [PERIFOSINE] | > 30 µM (inactive) | > 30 µM (inactive) | > 30 µM (inactive) |  | > 30 µM (inactive) | > 30 µM (inactive) | > 30 µM (inactive) | > 30 µM (inactive) | > 30 µM (inactive) | > 30 µM (inactive) | > 30 µM (inactive) | > 30 µM (inactive) | > 30 µM (inactive)
5 | Cc1cnc(NC(=O)Nc2cc(Br)c(C)cc2OC[C@@H]2CNCCO2)cn1 [RABUSERTIB] | > 30 µM (inactive) | > 30 µM (inactive) | > 30 µM (inactive) |  | > 30 µM (inactive) | > 30 µM (inactive) | > 30 µM (inactive) | > 30 µM (inactive) | > 30 µM (inactive) | > 30 µM (inactive) | > 30 µM (inactive) | > 30 µM (inactive) | > 30 µM (inactive)
6 | O=C1NC(=O)[C@@H](c2cn3c4c(cccc24)CCC3)[C@@H]1c1c[nH]c2ccccc12 [TIVANTINIB] | > 30 µM (inactive) | > 30 µM (inactive) | > 30 µM (inactive) |  | > 30 µM (inactive) | > 30 µM (inactive) | > 30 µM (inactive) | > 30 µM (inactive) | > 30 µM (inactive) | > 30 µM (inactive) | > 30 µM (inactive) | > 30 µM (inactive) | > 30 µM (inactive)
7 | CC(C)c1cc(CNc2nc(Nc3cc(C4CC4)[nH]n3)cc(N3CCN(C)CC3)n2)on1 [XL-228] | > 30 µM (inactive) | 0.138 µM (active) | > 30 µM (inactive) |  | 0.014 µM (active) | > 30 µM (inactive) | > 30 µM (inactive) | > 30 µM (inactive) | > 30 µM (inactive) | > 30 µM (inactive) | 0.005 µM | > 30 µM (inactive) | > 30 µM (inactive)
